# Patent publication US11807644B2 (PMV Pharmaceuticals, Inc., priority 2020, dated 2023)
# Target: T1, recombinant His-tag Y220C p53 DBD protein (Homo sapiens, UniProt P04637, Y220C)
# T1 construct: recombinant His-tag Y220C p53 DBD protein (amino acids #˜94-312)
# Test: In vitro DNA binding activity assay (TR-FRET): binding of His-tag Y220C p53 DBD to biotin-labeled consensus DNA
# Type: biochemical
# Conditions: SC150 = concentration to increase DNA binding by […], His-tag Y220C p53 DBD, biotin-labeled consensus DNA
row,SMILES,Y220C SC150 (μM)
1,"CN1CC[C@@H](Nc2cccc3c2cc(-c2noc(CNc4ccnn4C(C)(C)C)n2)n3CC(F)(F)F)[C@@H](F)C1 [Compound 396B, 2-(5-{[(1-tert-butyl-1H-pyrazol-5-yl)amino]methyl}-1,2,4-oxadiazol-3-yl)-N-[(3S,4R)-3-fluoro-1-methylpiperidin-4-yl]-1-(2,2,2-trifluoroethyl)-1H-indol-4-amine]",** (** = 0.1 μM ≤ SC150 < 0.5 μM)
2,"COCC1(c2cc(C(=O)NCc3nc(-c4cc5c(N[C@@H]6CCOC[C@@H]6F)cccc5n4CC(F)(F)F)no3)cs2)CC1 [Compound 507B, N-{[3-(4-{[(3R,4R)-3-fluorooxan-4-yl]amino}-1-(2,2,2-trifluoroethyl)-1H-indol-2-yl)-1,2,4-oxadiazol-5-yl]methyl}-5-[1-(methoxymethyl)cyclopropyl]thiophene-3-carboxamide]",* (* = 0 μM ≤ SC150 < 0.1 μM)
3,"CN1CC[C@@H](Nc2cccc3c2cc(-c2noc(CNC(=O)c4cn(C(C)(C)C)cn4)n2)n3CC(F)(F)F)[C@@H](F)C1 [Compound 292B, 1-tert-butyl-N-{[3-(4-{[(3S,4R)-3-fluoro-1-methylpiperidin-4-yl]amino}-1-(2,2,2-trifluoroethyl)-1H-indol-2-yl)-1,2,4-oxadiazol-5-yl]methyl}-1H-imidazole-4-carboxamide]",* (* = 0 μM ≤ SC150 < 0.1 μM)
4,"CN1CCC(Nc2cccc3c2cc(-c2noc(CNC(=O)c4nccs4)n2)n3CC(F)(F)F)CC1 [Compound 149B, N-[(3-{4-[(1-methylpiperidin-4-yl)amino]-1-(2,2,2-trifluoroethyl)-1H-indol-2-yl}-1,2,4-oxadiazol-5-yl)methyl]-1,3-thiazole-2-carboxamide]",* (* = 0 μM ≤ SC150 < 0.1 μM)
5,"CN1CC[C@@H](Nc2cccc3c2cc(-c2noc(CNC(=O)c4ccn(C5CCOC5)c4)n2)n3CC(F)(F)F)[C@@H](F)C1 (stereo partly drawn) [Compound 323B, N-{[3-(4-{[(3S,4R)-3-fluoro-1-methylpiperidin-4-yl]amino}-1-(2,2,2-trifluoroethyl)-1H-indol-2-yl)-1,2,4-oxadiazol-5-yl]methyl}-1-(oxolan-3-yl)-1H-pyrrole-3-carboxamide]",* (* = 0 μM ≤ SC150 < 0.1 μM)
6,"COc1cc(S(C)(=O)=O)ccc1NCc1nnc(-c2cc3c(N[C@H]4CCN(C)C[C@H]4F)cccc3n2CC(F)(F)F)o1 (racemic) [Compound 114B, (+/−)-N-[(3R,4S)-3-fluoro-1-methylpiperidin-4-yl]-2-(5-{[(4-methanesulfonyl-2-methoxyphenyl)amino]methyl}-1,3,4-oxadiazol-2-yl)-1-(2,2,2-trifluoroethyl)-1H-indol-4-amine]",** (** = 0.1 μM ≤ SC150 < 0.5 μM)
7,"CN1CC[C@@H](Nc2cccc3c2cc(-c2noc(CNC(=O)[C@@H]4CC4(C)C)n2)n3CC(F)(F)F)[C@@H](F)C1 [Compound 239B, (1R)-N-{[3-(4-{[(3S,4R)-3-fluoro-1-methylpiperidin-4-yl]amino}-1-(2,2,2-trifluoroethyl)-1H-indol-2-yl)-1,2,4-oxadiazol-5-yl]methyl}-2,2-dimethylcyclopropane-1-carboxamide]",* (* = 0 μM ≤ SC150 < 0.1 μM)
8,"CN1CC[C@@H](Nc2cccc3c2cc(-c2noc(CNC(=O)c4csc(C(C)(C)C)n4)n2)n3CC(F)(F)F)[C@@H](F)C1 [Compound 438B, 2-tert-butyl-N-{[3-(4-{[(3S,4R)-3-fluoro-1-methylpiperidin-4-yl]amino}-1-(2,2,2-trifluoroethyl)-1H-indol-2-yl)-1,2,4-oxadiazol-5-yl]methyl}-1,3-thiazole-4-carboxamide]",* (* = 0 μM ≤ SC150 < 0.1 μM)
9,"CN1CC[C@@H](Nc2cccc3c2cc(-c2noc(CNC(=O)[C@@H]4C[C@H]4c4ccc(F)cc4)n2)n3CC(F)(F)F)[C@@H](F)C1 [Compound 210B, (1R,2R)-N-{[3-(4-{[(3S,4R)-3-fluoro-1-methylpiperidin-4-yl]amino}-1-(2,2,2-trifluoroethyl)-1H-indol-2-yl)-1,2,4-oxadiazol-5-yl]methyl}-2-(4-fluorophenyl)cyclopropane-1-carboxamide]",* (* = 0 μM ≤ SC150 < 0.1 μM)
10,"C[C@@H]1CN(C)CC[C@@H]1Nc1cccc2c1cc(-c1noc(CNC(=O)c3ccn(C(C)(C)C)c3)n1)n2CC(F)(F)F [Compound 513B, 1-tert-butyl-N-{[3-(4-{[(3R,4S)-1,3-dimethylpiperidin-4-yl]amino}-1-(2,2,2-trifluoroethyl)-1H-indol-2-yl)-1,2,4-oxadiazol-5-yl]methyl}-1H-pyrrole-3-carboxamide]",* (* = 0 μM ≤ SC150 < 0.1 μM)
11,"CN1CCC(Nc2cccc3c2cc(-c2nc(CNC(=O)C4CC4)no2)n3CC(F)(F)F)CC1 [Compound 137B, N-[(5-{4-[(1-methylpiperidin-4-yl)amino]-1-(2,2,2-trifluoroethyl)-1H-indol-2-yl}-1,2,4-oxadiazol-3-yl)methyl]cyclopropanecarboxamide]",** (** = 0.1 μM ≤ SC150 < 0.5 μM)
12,"COCC(C)n1ccc(C(=O)NCc2nc(-c3cc4c(N[C@@H]5CCN(C)C[C@@H]5F)cccc4n3CC(F)(F)F)no2)c1 (stereo partly drawn) [Compound 289B, N-{[3-(4-{[(3S,4R)-3-fluoro-1-methylpiperidin-4-yl]amino}-1-(2,2,2-trifluoroethyl)-1H-indol-2-yl)-1,2,4-oxadiazol-5-yl]methyl}-1-(1-methoxypropan-2-yl)-1H-pyrrole-3-carboxamide]",* (* = 0 μM ≤ SC150 < 0.1 μM)
13,"CN1CC[C@@H](Nc2cccc3c2cc(-c2noc(CNC(=O)c4ccc(N(C)C)nc4)n2)n3CC(F)(F)F)[C@@H](F)C1 [Compound 557B, 6-(dimethylamino)-N-{[3-(4-{[(3S,4R)-3-fluoro-1-methylpiperidin-4-yl]amino}-1-(2,2,2-trifluoroethyl)-1H-indol-2-yl)-1,2,4-oxadiazol-5-yl]methyl}pyridine-3-carboxamide]",* (* = 0 μM ≤ SC150 < 0.1 μM)
14,CC1(n2ccc(C(=O)NCc3nc(-c4cc5c(N[C@@H]6CCOC[C@@H]6F)cccc5n4CC(F)(F)F)no3)c2)CCOCC1 (stereo in doubt) [Compound 491B],* (* = 0 μM ≤ SC150 < 0.1 μM)
15,"CN1CC[C@@H](Nc2cccc3c2cc(-c2noc(CNC(=O)C4CC4)n2)n3CC(F)(F)F)[C@@H](F)C1 [Compound 173B, N-{[3-(4-{[(3S,4R)-3-fluoro-1-methylpiperidin-4-yl]amino}-1-(2,2,2-trifluoroethyl)-1H-indol-2-yl)-1,2,4-oxadiazol-5-yl]methyl}cyclopropanecarboxamide]",* (* = 0 μM ≤ SC150 < 0.1 μM)
16,"C[C@@H]1C[C@H]1C(=O)NCc1nc(-c2cc3c(NC4CCN(C)CC4)cccc3n2CC(F)(F)F)no1 (racemic) [Compound 157B, (+/−)-(1R,2R)-2-methyl-N-[(3-{4-[(1-methylpiperidin-4-yl)amino]-1-(2,2,2-trifluoroethyl)-1H-indol-2-yl}-1,2,4-oxadiazol-5-yl)methyl]cyclopropane-1-carboxamide]",* (* = 0 μM ≤ SC150 < 0.1 μM)

# Same assay, conditions: concentration to increase DNA binding by […], incubated at either 27° C. or 29° C. for 60 min
row,SMILES,SC150 (μM)
1,"CC(C)(C#N)c1ccc(NC(=O)NCc2ccc(-c3cc4c(NC5CCS(=O)(=O)CC5)cccc4n3CC(F)(F)F)cc2)cn1 [Compound 18A, 3-[6-(1-cyano-1-methylethyl)pyridin-3-yl]-1-[(4-{4-[(1,1-dioxo-1λ^6-thian-4-yl)amino]-1-(2,2,2-trifluoroethyl)-1H-indol-2-yl}phenyl)methyl]urea]",+ (+ = 0 μM ≤ SC150 < 2 μM)
